Laboratory results published in patent US9913836B2, “Anticholinergic neuroprotective composition and methods” (priority 2012, dated 2018).
Where “and” joins values, the source holds several entries; their conditions need not be identical. Identical values can stand only once. Entries after “also recorded” stand apart in the source; their conditions may differ.

Assays:
[1] = solifenacin 10 mg versus placebo
Method: Safety and tolerability were evaluated based on subject reports, physician observations and examinations, and the performance of standard laboratory tests.

Tg2576 mouse model of AD = conditions: in vivo; cited from earlier work
[2] = in vivo; cited from earlier work
[3] = cited from earlier work
[4] = Birks 2009; Forette 1999; cited from earlier work
[5] = Same study: peak plasma levels of rivastigmine given with placebo or active trospium; assay type: in vivo, human
Method: (§1) In this single-blind crossover study, healthy volunteers were hospitalized at a Phase I Center (Forenap, Rouffach, France) for the once daily oral administration of ascending doses of rivastigmine hydrogen tartrate (“rivastigmine”), (3 mg to a possible maximum of 24 mg in 3 mg increments as tolerated) together with placebo trospium and then with ascending amounts of rivastigmine (3 mg to a possible maximum of 24 mg as tolerated) together with active trospium. Placebo trospium or active trospium (at a fixed dose of 40 mg per day) were given orally once daily 3 hours before rivastigmine administration. Venous blood was collected for the measurement of plasma drug levels at their nominal peaks (approximately 1 hour after rivastigmine administration). Subjects were monitored clinically for 4 hours after drug administration or until all adverse events had subsided.

[6] = Single-blind crossover study in healthy volunteers: maximum tolerated dose and adverse events of rivastigmine given with placebo or active trospium; assay type: in vivo, human
Method: as §1

[7] = open-label, 1.5 mg up to 6 mg twice daily, 26 weeks; no worsening of motor function; cited from earlier work
[8] = test system: acetylcholinesterase / butyrylcholinesterase; conditions: cited from earlier work
[9] = subject (c), dose above tolerated dose

Compound: COc1cc2c(cc1OC)C(=O)C(CC1CCN(Cc3ccccc3)CC1)C2 (racemic) [donepezil, (±)-2,3-dihydro-5,6-dimethoxy-2-[[1-(phenylmethyl)-4-piperidinyl]methyl]-1H-inden-1-one]
- Increase of peak donepezil levels with combined therapy [1]: ~2.6 fold
- Adverse events at the tolerated donepezil dose given with placebo solifenacin (individual subjects, donepezil 5 mg (a, b, c, f), 15 mg (d), 30 mg (e)): no adverse events; also recorded: severe abdominal pain, weakness, moderate anorexia, sweating and dry mouth; also recorded: moderate weakness, mild dizziness and moderate hypersalivation
- Adverse events at the tolerated donepezil dose given with 10 mg of solifenacin (individual subjects, donepezil 10 mg (a, f), 15 mg (b, d), 5 mg (c), 40 mg (e)): moderate nausea and moderate dizziness; also recorded: no adverse events; also recorded: moderate abdominal pain and severe headache
- Subjects in whom solifenacin co-treatment enabled substantially higher daily doses of donepezil (solifenacin 10 mg versus placebo): 4 out of 6
- Adverse events with 10 mg of donepezil and placebo solifenacin [9]: severe anorexia, nausea, retching, vomiting, weakness, headache, moderate diarrhea, and mild sweating, dizziness, somnolence, hypersalivation, muscular cramps
- Adverse events with 10 mg of donepezil given with 10 mg of solifenacin [9]: severe nausea and retching
- Increase of the donepezil MTD after donepezil/solifenacin combination (the other subjects (a), (b), (e), (f)): 33-300%
- A-beta deposition in Tg2576 mice (Tg2576 mouse model of AD): did not affect
- Effect on A-beta and synaptic density parameters at lower doses (Tg2576 mouse model of AD): not effective
- Learning and memory functions in Tg2576 mice (Tg2576 mouse model of AD): improved
- Synaptic density in the molecular layer of the dentate gyrus (Tg2576 mouse model of AD): significantly increased

Compound: O=C(O[C@H]1C[C@H]2CC[C@@H](C1)[N+]21CCCC1)C(O)(c1ccccc1)c1ccccc1 [Trospium, 3-(2-hydroxy-2,2-diphenylacetoxy)-spiro[bicyclo[3.2.1]octane-8,1′-pyrrolidin]-1′-ium]
- Average plasma half-life of the absorbed amount [2]: about 18 hours

Compound: CCN(C)C(=O)Oc1cccc([C@H](C)N(C)C)c1 [rivastigmine, (S)—N-Ethyl-N-methyl-3-[1-(dimethylamino)ethyl]-phenyl carbamate]
- Benefits on cognitive and global measures relevant to dementia ([3]; patients with dementias of the Alzheimer type): small, but statistically significant, benefits
- Cognitive improvement in patients with Alzheimer's disease on doubling the dose ([3]; skin patches instead of immediate release tablets, without increasing side effects): significantly increased the amount of cognitive improvement
- Reported average maximum tolerated single oral dose of rivastigmine [4]: about 4.5 mg
- Average peak plasma rivastigmine with trospium relative to without trospium ([5]; 88 ng/ml versus 30.7 ng/ml): 2.9 times
- Average peak plasma rivastigmine with trospium relative to literature value ([5]; 88 ng/ml versus about 12 ng/ml reported): ~7.3 times
- Average peak plasma concentration of rivastigmine given without trospium ([5]; average of 2 subjects): 30.7 ng/mL
- Peak plasma (maximum tolerated) concentration of rivastigmine given with placebo trospium ([5]; venous blood about 1 hour after 15 mg rivastigmine, individual subjects (b), (c)): 53 ng/mL and 8.3 ng/mL
- Peak plasma (maximum tolerated) concentration of rivastigmine given with 40 mg of trospium ([5]; venous blood about 1 hour after rivastigmine 24 mg (a) or 18 mg (b, c), individual subjects): 39 ng/mL and 94 ng/mL and 131 ng/mL
- Tolerated dose of rivastigmine given with placebo trospium ([6]; individual healthy volunteers (a)-(c), once daily oral ascending doses 3 to 24 mg, placebo trospium 3 hours before): 9 mg and 15 mg
- Tolerated dose of rivastigmine given with 40 mg of trospium ([6]; individual healthy volunteers (a)-(c), once daily oral ascending doses 3 to 24 mg, trospium 40 mg oral 3 hours before): 24 mg and 18 mg
- Adverse events at the tolerated rivastigmine dose given with placebo trospium ([6]; individual subjects, rivastigmine 9 mg (a), 15 mg (b, c)): moderate nausea and mild somnolence; also recorded: mild dry mouth
- Adverse events at the tolerated rivastigmine dose given with 40 mg of trospium ([6]; individual subjects, rivastigmine 24 mg (a), 18 mg (b, c)): mild nausea as well as abdominal pain, headache and respiratory difficulty in addition to moderate anorexia; also recorded: mild dry mouth and moderate urinary difficulty
- Tolerated rivastigmine dose with 40 mg trospium as multiple of the maximum recommended single oral dose (6 mg) ([6]; subject (a): 4, subjects (b) and (c): 3): 4 times and 3 times
- Cognitive functions in PD patients with dementia [7]: may improve the cognitive functions
- Affinity / selectivity for acetylcholinesterase versus butyrylcholinesterase [8]: inhibits both enzymes with similar affinity
